These results are taken from BindingDB's records for doi:10.1021/jm010294e (Novartis Institute For Biomedical Reasearch, 2001).

Each structure is given as a SMILES string.

In the assay the target is Apolipoprotein B-100 (Homo sapiens, UniProt P04114). The assay is described as follows: Inhibition of apolipoprotein B (apoB) secreted by human hepatoma cells (Hep G2) […].
Chain of Apolipoprotein B-100 (P04114 whole entry C1422Y): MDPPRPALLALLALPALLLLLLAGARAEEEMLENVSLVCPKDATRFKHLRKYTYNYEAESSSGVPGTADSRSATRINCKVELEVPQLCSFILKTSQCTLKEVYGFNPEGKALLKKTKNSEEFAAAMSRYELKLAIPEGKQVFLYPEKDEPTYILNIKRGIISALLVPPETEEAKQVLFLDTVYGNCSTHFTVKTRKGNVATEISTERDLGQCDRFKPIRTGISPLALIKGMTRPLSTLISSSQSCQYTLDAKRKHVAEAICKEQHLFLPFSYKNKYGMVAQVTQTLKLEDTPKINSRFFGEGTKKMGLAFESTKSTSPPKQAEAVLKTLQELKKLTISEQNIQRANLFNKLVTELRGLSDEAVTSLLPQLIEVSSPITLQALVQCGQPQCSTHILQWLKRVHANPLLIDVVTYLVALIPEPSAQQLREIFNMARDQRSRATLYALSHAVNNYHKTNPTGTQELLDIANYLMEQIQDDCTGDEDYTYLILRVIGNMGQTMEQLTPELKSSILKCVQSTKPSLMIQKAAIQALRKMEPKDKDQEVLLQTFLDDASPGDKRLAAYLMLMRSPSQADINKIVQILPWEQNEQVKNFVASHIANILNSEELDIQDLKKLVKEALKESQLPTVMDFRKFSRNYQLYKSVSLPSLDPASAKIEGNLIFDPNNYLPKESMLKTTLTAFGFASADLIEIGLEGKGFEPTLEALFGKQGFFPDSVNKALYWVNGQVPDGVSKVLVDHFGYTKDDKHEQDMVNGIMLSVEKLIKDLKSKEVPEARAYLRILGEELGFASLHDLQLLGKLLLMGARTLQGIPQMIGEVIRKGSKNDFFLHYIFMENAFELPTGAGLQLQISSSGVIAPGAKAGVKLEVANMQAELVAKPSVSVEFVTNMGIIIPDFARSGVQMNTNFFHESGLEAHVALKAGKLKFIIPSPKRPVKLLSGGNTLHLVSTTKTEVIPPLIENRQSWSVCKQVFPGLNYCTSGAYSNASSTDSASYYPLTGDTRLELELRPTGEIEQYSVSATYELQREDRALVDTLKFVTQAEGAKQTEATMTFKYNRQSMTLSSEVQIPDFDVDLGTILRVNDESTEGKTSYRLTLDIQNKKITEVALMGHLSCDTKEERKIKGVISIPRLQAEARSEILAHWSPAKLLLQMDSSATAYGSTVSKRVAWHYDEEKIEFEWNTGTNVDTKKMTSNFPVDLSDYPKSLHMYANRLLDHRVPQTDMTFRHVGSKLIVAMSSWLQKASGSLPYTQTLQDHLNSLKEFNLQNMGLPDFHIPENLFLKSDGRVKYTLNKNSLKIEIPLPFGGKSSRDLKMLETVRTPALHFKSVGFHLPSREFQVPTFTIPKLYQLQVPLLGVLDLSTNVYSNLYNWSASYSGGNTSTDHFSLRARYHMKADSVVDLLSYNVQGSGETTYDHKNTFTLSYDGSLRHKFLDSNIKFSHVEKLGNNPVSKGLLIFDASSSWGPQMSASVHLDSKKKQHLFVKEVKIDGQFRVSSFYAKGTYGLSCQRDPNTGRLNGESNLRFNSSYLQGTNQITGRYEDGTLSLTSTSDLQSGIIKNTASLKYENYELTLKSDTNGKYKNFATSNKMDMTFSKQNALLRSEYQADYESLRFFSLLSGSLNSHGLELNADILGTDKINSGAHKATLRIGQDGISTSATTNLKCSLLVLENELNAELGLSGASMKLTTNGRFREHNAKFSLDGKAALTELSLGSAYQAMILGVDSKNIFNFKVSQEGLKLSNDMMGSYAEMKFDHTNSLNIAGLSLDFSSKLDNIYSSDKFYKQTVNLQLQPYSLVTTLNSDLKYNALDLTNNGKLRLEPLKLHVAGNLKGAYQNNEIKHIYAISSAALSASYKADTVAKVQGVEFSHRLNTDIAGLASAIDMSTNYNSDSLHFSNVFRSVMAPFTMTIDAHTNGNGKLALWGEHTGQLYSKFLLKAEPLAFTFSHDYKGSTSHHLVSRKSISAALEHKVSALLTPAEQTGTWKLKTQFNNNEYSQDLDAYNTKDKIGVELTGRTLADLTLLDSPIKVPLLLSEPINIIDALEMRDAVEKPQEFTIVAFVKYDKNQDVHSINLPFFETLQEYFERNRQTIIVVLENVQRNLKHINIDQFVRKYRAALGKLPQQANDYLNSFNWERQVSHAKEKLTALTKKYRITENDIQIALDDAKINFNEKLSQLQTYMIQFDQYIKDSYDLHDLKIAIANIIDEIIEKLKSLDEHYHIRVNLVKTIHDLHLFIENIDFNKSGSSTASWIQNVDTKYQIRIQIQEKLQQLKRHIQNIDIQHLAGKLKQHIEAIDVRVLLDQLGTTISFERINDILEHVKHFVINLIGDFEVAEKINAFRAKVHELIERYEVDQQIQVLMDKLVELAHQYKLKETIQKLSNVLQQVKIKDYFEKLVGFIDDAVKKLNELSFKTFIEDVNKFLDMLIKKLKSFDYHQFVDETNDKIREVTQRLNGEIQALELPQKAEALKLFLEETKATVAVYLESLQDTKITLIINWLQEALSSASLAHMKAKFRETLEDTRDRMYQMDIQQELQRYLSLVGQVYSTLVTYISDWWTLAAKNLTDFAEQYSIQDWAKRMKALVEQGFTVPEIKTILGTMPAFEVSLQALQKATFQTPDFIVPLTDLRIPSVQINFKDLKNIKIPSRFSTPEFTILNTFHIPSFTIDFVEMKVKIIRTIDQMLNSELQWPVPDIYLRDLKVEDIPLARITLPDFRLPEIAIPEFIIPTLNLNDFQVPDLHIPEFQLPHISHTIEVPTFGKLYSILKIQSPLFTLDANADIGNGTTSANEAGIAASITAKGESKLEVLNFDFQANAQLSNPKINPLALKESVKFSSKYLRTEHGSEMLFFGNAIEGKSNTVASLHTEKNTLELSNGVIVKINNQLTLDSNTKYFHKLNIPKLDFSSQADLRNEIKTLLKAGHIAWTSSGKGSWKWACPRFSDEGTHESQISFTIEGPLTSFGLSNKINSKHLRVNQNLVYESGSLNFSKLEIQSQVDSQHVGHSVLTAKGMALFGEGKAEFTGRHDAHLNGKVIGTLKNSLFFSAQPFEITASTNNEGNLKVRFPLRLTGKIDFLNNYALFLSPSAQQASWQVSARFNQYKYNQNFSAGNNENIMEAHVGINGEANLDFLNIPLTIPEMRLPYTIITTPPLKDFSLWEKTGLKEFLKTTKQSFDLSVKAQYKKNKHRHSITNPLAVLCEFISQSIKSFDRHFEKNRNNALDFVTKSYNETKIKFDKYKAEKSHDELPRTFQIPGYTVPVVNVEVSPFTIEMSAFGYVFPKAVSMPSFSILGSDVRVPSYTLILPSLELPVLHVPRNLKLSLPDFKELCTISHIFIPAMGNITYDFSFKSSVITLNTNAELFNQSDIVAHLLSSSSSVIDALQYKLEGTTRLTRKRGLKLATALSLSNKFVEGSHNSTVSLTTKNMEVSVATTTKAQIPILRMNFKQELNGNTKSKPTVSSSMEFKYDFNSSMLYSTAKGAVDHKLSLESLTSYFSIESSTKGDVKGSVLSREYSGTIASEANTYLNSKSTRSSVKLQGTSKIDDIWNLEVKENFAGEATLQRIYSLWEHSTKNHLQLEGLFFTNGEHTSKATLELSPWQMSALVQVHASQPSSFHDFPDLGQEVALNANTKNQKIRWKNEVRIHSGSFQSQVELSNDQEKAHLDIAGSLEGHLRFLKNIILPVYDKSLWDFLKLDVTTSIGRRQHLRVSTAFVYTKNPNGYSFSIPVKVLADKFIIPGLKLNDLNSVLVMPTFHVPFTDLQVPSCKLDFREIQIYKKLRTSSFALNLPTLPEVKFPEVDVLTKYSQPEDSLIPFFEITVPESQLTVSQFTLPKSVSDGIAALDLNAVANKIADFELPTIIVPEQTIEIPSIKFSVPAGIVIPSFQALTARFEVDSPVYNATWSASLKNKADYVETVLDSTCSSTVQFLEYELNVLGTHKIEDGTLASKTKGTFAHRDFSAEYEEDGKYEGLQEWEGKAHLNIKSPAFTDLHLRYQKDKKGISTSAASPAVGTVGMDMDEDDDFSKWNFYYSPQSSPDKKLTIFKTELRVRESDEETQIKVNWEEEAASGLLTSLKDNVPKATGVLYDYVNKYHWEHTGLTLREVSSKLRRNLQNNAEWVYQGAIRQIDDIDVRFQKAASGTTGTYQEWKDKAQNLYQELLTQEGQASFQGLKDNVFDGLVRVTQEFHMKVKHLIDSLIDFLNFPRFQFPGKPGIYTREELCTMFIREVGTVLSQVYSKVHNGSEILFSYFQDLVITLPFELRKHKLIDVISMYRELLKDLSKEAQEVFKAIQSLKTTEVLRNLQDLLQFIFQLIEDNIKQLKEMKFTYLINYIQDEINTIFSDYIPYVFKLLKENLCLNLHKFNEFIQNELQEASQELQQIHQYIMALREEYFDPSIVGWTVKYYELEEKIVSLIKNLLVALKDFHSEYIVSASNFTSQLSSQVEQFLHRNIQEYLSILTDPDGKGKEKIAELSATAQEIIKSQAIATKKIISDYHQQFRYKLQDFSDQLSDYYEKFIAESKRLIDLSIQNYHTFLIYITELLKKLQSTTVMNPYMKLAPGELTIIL
One may read the IC50 as the concentration that inhibits the measured activity by half. A low value points to inhibition by little substance. As to `COC(=O)NC1CCc2ccc(NC(=O)c3cc(C)cc(C)c3-c3ccc(C(F)(F)F)cc3)cc2CC1` (centres undefined) [{2-[(4,6-Dimethyl-4'-trifluoromethyl-biphenyl-2-carbonyl)-amino]-6,7,8,9-tetrahydro-5H-benzocyclohepten-7-yl}-carbamic acid methyl ester], 2.4 nM corresponded to half-maximal inhibition (IC50).

In the case of `COC(=O)NC1CCc2ccc(NC(=O)c3cccc(C)c3-c3ccc(C(F)(F)F)cc3)cc2CC1` (centres undefined) [{2-[(6-Methyl-4'-trifluoromethyl-biphenyl-2-carbonyl)-amino]-6,7,8,9-tetrahydro-5H-benzocyclohepten-7-yl}-carbamic acid methyl ester], the IC50 was determined as 1.6 nM. The IC50 values of the last two compounds are within 1.5-fold of each other.

`COC(=O)NC1Cc2ccc(NC(=O)c3cc(C)cc(C)c3-c3ccc(Cl)cc3)cc2C1` (centres undefined) [{5-[(4'-Chloro-4,6-dimethyl-biphenyl-2-carbonyl)-amino]-indan-2-yl}-carbamic acid methyl ester]: half-maximal inhibition (IC50) required 3.4 nM.

As to `COC(=O)NCC1Cc2ccc(NC(=O)c3cccc(C)c3-c3ccc(Cl)cc3)cc2C1` (centres undefined) [{5-[(4'-Chloro-6-methyl-biphenyl-2-carbonyl)-amino]-indan-2-ylmethyl}-carbamic acid methyl ester], half-maximal inhibition (IC50) was put at 8.7 nM.

With `COC(=O)N[C@@H]1Cc2ccc(NC(=O)c3ccccc3-c3ccc(C(F)(F)F)cc3)cc2C1` [{5-[(4'-Trifluoromethyl-biphenyl-2-carbonyl)-amino]-indan-2-yl}-carbamic acid methyl ester], the IC50 is 5.2 nM.

On to `COC(=O)N[C@H]1Cc2ccc(NC(=O)c3ccccc3-c3ccc(C(F)(F)F)cc3)cc2C1` [{5-[(4'-Trifluoromethyl-biphenyl-2-carbonyl)-amino]-indan-2-yl}-carbamic acid methyl ester], for which it took 1.9 nM to reach half-maximal inhibition (IC50).

On to `COC(=O)N[C@H]1Cc2ccc(NC(=O)c3cc(C(F)(F)F)ccc3-c3ccc(C(F)(F)F)cc3)cc2C1` [{5-[(4,4'-Bis-trifluoromethyl-biphenyl-2-carbonyl)-amino]-indan-2-yl}-carbamic acid methyl ester], for which the IC50 came to 7.5 nM.

In the case of `COC(=O)NCC1Cc2ccc(NC(=O)c3cc(C)cc(C)c3-c3ccc(C(F)(F)F)cc3)cc2C1` (centres undefined) [{5-[(4,6-Dimethyl-4'-trifluoromethyl-biphenyl-2-carbonyl)-amino]-indan-2-ylmethyl}-carbamic acid methyl ester], the IC50 amounted to 2.2 nM.

Take `COC(=O)N[C@@H]1Cc2ccc(NC(=O)c3cc(C)cc(C)c3-c3ccc(C(F)(F)F)cc3)cc2C1` [{5-[(4,6-Dimethyl-4'-trifluoromethyl-biphenyl-2-carbonyl)-amino]-indan-2-yl}-carbamic acid methyl ester]: the IC50 turned out to be 2.5 nM.

As for `COC(=O)N[C@H]1Cc2ccc(NC(=O)c3cc(C)cc(C)c3-c3ccc(C(F)(F)F)cc3)cc2C1` [{5-[(4,6-Dimethyl-4'-trifluoromethyl-biphenyl-2-carbonyl)-amino]-indan-2-yl}-carbamic acid methyl ester], the IC50 came out at 1.1 nM. This IC50 lies about 2.3-fold lower than the previous one.

For the compound `COC(=O)N[C@H]1Cc2ccc(NC(=O)c3cc(C)ccc3-c3ccc(C(F)(F)F)cc3)cc2C1` [{5-[(4-Methyl-4'-trifluoromethyl-biphenyl-2-carbonyl)-amino]-indan-2-yl}-carbamic acid methyl ester], half-maximal inhibition (IC50) was put at 2.2 nM.

Take `COC(=O)N[C@H]1Cc2ccc(NC(=O)c3cccc(C(F)(F)F)c3-c3ccc(C(F)(F)F)cc3)cc2C1` [{5-[(6,4'-Bis-trifluoromethyl-biphenyl-2-carbonyl)-amino]-indan-2-yl}-carbamic acid methyl ester]: the midpoint of inhibition, the IC50, lay at 1.8 nM. This IC50 and that of the compound before are within 1.5-fold of each other.

The compound `COC(=O)NCC1Cc2ccc(NC(=O)c3cccc(C)c3-c3ccc(C(F)(F)F)cc3)cc2C1` (centres undefined) [{5-[(6-Methyl-4'-trifluoromethyl-biphenyl-2-carbonyl)-amino]-indan-2-ylmethyl}-carbamic acid methyl ester] registered an IC50 of 4.1 nM.

In turn, `COC(=O)N[C@H]1Cc2ccc(NC(=O)c3cccc(C)c3-c3ccc(C(F)(F)F)cc3)cc2C1` [{5-[(6-Methyl-4'-trifluoromethyl-biphenyl-2-carbonyl)-amino]-indan-2-yl}-carbamic acid methyl ester] gave an IC50 of 0.7 nM. This IC50 is about 5.9-fold lower than that of the compound before.
